{"source": "patent US4808584A", "about": "“Quinolinecarboxylic acid derivatives and antibacterial agent containing the same” (Kanebo, Ltd., priority 1987, dated 1989)", "key": {"[1]": {"test_system": "E. coli KC-14", "test": "Effect on treatment of infectiousness of the genito-urinary tract", "type": "in vivo, ICR female mice", "settings": "Escherichia coli, KC14, 48 h; E. coli KC-14, 5.6×10^5 CFU/mouse into urinary bladder; oral; not more than 10^4 living bacteria/1 g of kidney regarded as effective", "method": "2. Test microorganism and inoculum size E. coli KC-14 (5.6×10^5 CFU/mouse) 3. Method:\nA microorganism solution (0.1 ml) prepared in the same manner as described in Experiment 3 was introduced into urinary bladder through urinary tract of ICR female mice (5 weeks age, weighing 20 to 22 g, 5 mice in each group), and then urinary meatus was clasped with clip for 4 hours to infect the animals. After taking off the clip, the compound (B) of the present invention dissolved in sterilized distilled water or ofloxacin suspended in 0.5% aqueous sodium carboxymethyl cellulose solution was orally administered to mice. Two days after the infection, mice kidneys were taken out and weighed, to which PBS (Dulbecco's phosphate buffered saline) was added and the mixture was homogenized. The homogenate was then diluted with PBS and inoculated onto a plate of modified Drigalski Agar (BTB lactose agar \"Nissui\", made by Nissui Seiyaku K.K., Japan) and cultured at 37° C. for 18 hours. The number of the colonies of infectious bacteria grown on the plate was counted. The number of living bacteria per 1 g of kidney was calculated from the number of colonies and the kidney weight. The living bacteria number/1 g of kidney of not more than 10^4 was regarded as effective and an effective dose for 50% mice (ED50) was calculated by Weil method."}, "[2]": {"test_system": "methicillin resistant Staphylococcus aureus", "test": "Minimum inhibitory concentration against clinically isolated methicillin resistant Staphylococcus aureus", "type": "cell-based", "method": "The compound (B) was dissolved in sterilized distilled water, and ofloxacin in 0.1N aqueous potassium hydroxide, to prepare a solution of 5000 μg/ml in concentration each. The above solutions were then diluted with sterilized distilled water to prepare a standard solution with a concentration of the test compound: 1000 μg/ml each. The test was carried out by a method approved by Japan Society of Chemotherapy (ibidem) to measure minimum inhibitory concentration (MIC) against 54 strains of clinically isolated methicillin resistant Staphylococcus aureus, from which there were calculated a range of MIC (MICrange) of the test compound against these resistant strains, a minimum concentration for inhibiting the growth of the strains by 50% (MIC50) and a minimum concentration for inhibiting the growth of the strains by 90% (MIC90)."}, "[3]": {"test_system": "Salmonella typhimurium IID 971", "test": "Minimum inhibitory concentration (MIC)", "type": "cell-based", "settings": "Salmonella enterica, Salmonella typhimurium IID 971, Gram -; read-out: Minimum inhibitory concentration (MIC)", "method": "(§1) The compounds of the present invention (A, C, E, F, G, H and I) and ofloxacin as control were dissolved in 0.1N aqueous potassium hydroxide to prepare a solution of 5000 μg/ml in concentration. The compounds of the present invention (B, D and J) were dissolved in sterilized distilled water to prepare a solution of 5000 μg/ml in concentration. Each solution was diluted with sterilized distilled water to prepare a standard solution with a concentration of each test compound: 1000 μg/ml. The test was carried out by a method approved by Japan Society of Chemotherapy [cf. Chemotherapy, 29, 76-79 (1981)(TOKYO)]."}, "[4]": {"test_system": "Shigella sonnei EW-33", "test": "Minimum inhibitory concentration (MIC)", "type": "cell-based", "settings": "EW33; Shigella sonnei EW-33, Gram -", "method": "as §1"}, "[5]": {"test_system": "Pseudomonas aeruginosa IFO 3445", "test": "Minimum inhibitory concentration (MIC)", "type": "cell-based", "settings": "Pseudomonas aeruginosa, IFO3445, Pseudomonas aeruginosa IFO 3445, Gram -", "method": "as §1"}, "[6]": {"test_system": "Proteus mirabilis IFO 3849", "test": "Minimum inhibitory concentration (MIC)", "type": "cell-based", "settings": "IFO3849; Proteus mirabilis IFO 3849, Gram -", "method": "as §1"}, "[7]": {"test_system": "Acinetobacter calcoaceticus AC 54", "test": "Minimum inhibitory concentration (MIC)", "type": "cell-based", "settings": "Acinetobacter calcoaceticus, AC54, Acinetobacter calcoaceticus AC 54, Gram -", "method": "as §1"}, "[8]": {"test_system": "Staphylococcus aureus FDA 209P JC-1", "test": "Minimum inhibitory concentration (MIC)", "type": "cell-based", "settings": "FDA209P; Staphylococcus aureus FDA 209P JC-1, Gram +", "method": "as §1"}, "[9]": {"test_system": "Pseudomonas aeruginosa NCTC 10490", "test": "Minimum inhibitory concentration (MIC)", "type": "cell-based", "settings": "Pseudomonas aeruginosa, NCTC10490, Pseudomonas aeruginosa NCTC 10490, Gram -", "method": "as §1"}, "[10]": {"test_system": "Enterobacter cloacae 963", "test": "Minimum inhibitory concentration (MIC)", "type": "cell-based", "settings": "Enterobacter cloacae 963, Gram -", "method": "as §1"}, "[11]": {"test_system": "Streptococcus faecalis IID 682", "test": "Minimum inhibitory concentration (MIC)", "type": "cell-based", "settings": "Enterococcus faecalis, IID682, Streptococcus faecalis IID 682, Gram +", "method": "as §1"}, "[12]": {"test_system": "Micrococcus luteus ATCC 9341", "test": "Minimum inhibitory concentration (MIC)", "type": "cell-based", "settings": "ATCC9341; Micrococcus luteus ATCC 9341, Gram +", "method": "as §1"}, "[13]": {"test_system": "Enterobacter aerogenes ATCC 13048", "test": "Minimum inhibitory concentration (MIC)", "type": "cell-based", "settings": "Klebsiella aerogenes, ATCC13048, Enterobacter aerogenes ATCC 13048, Gram -", "method": "as §1"}, "[14]": {"test_system": "Staphylococcus epidermidis IAM-1296", "test": "Minimum inhibitory concentration (MIC)", "type": "cell-based", "settings": "Staphylococcus epidermidis, IAM1296, Staphylococcus epidermidis IAM-1296, Gram +", "method": "as §1"}, "[15]": {"test_system": "Morganella morganii IFO 3848", "test": "Minimum inhibitory concentration (MIC)", "type": "cell-based", "settings": "IFO3848; Morganella morganii IFO 3848, Gram -", "method": "as §1"}, "[16]": {"test_system": "Serratia marcescens IAM 1184", "test": "Minimum inhibitory concentration (MIC)", "type": "cell-based", "settings": "Serratia marcescens, IAM1184, Serratia marcescens IAM 1184, Gram -", "method": "as §1"}, "[17]": {"test_system": "Citrobacter freundii NIHJ 10018-68", "test": "Minimum inhibitory concentration (MIC)", "type": "cell-based", "settings": "NIHJ10018; Citrobacter freundii NIHJ 10018-68, Gram -", "method": "as §1"}, "[18]": {"test_system": "Escherichia coli KC-14", "test": "Minimum inhibitory concentration (MIC)", "type": "cell-based", "settings": "KC14; Escherichia coli KC-14, Gram -", "method": "as §1"}, "[19]": {"test_system": "Bacillus subtilis ATCC 6633", "test": "Minimum inhibitory concentration (MIC)", "type": "cell-based", "settings": "ATCC6633; Bacillus subtilis ATCC 6633, Gram +; read-out: Minimum inhibitory concentration (MIC)", "method": "as §1"}, "[20]": {"test_system": "Escherichia coli NIHJ JC-2", "test": "Minimum inhibitory concentration (MIC)", "type": "cell-based", "settings": "NIHJJC2; Escherichia coli NIHJ JC-2, Gram -", "method": "as §1"}, "[21]": {"test_system": "Staphylococcus aureus IID 803", "test": "Minimum inhibitory concentration (MIC)", "type": "cell-based", "settings": "IID803; Staphylococcus aureus IID 803, Gram +; read-out: Minimum inhibitory concentration (MIC)", "method": "as §1"}, "[22]": {"test_system": "Pseudomonas aeruginosa E-2", "test": "Minimum inhibitory concentration (MIC)", "type": "cell-based", "settings": "E2; Pseudomonas aeruginosa E-2, Gram -", "method": "as §1"}}}
{"smiles": "CC1COc2c(N3CCN(C)CC3)c(F)cc3c(=O)c(C(=O)O)cn1c23", "note": "(racemic) [Ofloxacin, reference compound]", "values": [{"measurement": "ED50", "setting": "[1]", "value": 50, "unit": "mg/kg"}, {"measurement": "MIC", "setting": "[2]; 54 strains of clinically isolated methicillin resistant Staphylococcus aureus", "value": "0.39 to 1.56", "unit": "µg/mL"}, {"measurement": "MIC50", "setting": "[2]; Staphylococcus aureus, minimum concentration for inhibiting the growth of the strains by 50%, 54 strains", "value": 0.39, "unit": "µg/mL"}, {"measurement": "MIC90", "setting": "[2]; Staphylococcus aureus, minimum concentration for inhibiting the growth of the strains by 90%, 54 strains", "value": 1.56, "unit": "µg/mL"}, {"measurement": "MIC", "setting": "[3]", "value": 0.05, "unit": "µg/mL"}, {"measurement": "MIC", "setting": "[4]", "value": 0.05, "unit": "µg/mL"}, {"measurement": "MIC", "setting": "[5]", "value": 1.56, "unit": "µg/mL"}, {"measurement": "MIC", "setting": "[6]", "value": 0.39, "unit": "µg/mL"}, {"measurement": "MIC", "setting": "[7]", "value": 0.39, "unit": "µg/mL"}, {"measurement": "MIC", "setting": "[8]", "value": 0.39, "unit": "µg/mL"}, {"measurement": "MIC", "setting": "[9]", "value": 1.56, "unit": "µg/mL"}, {"measurement": "MIC", "setting": "[10]", "value": 0.2, "unit": "µg/mL"}, {"measurement": "MIC", "setting": "[11]", "value": 1.56, "unit": "µg/mL"}, {"measurement": "MIC", "setting": "[12]", "value": 3.13, "unit": "µg/mL"}, {"measurement": "MIC", "setting": "[13]", "value": 0.1, "unit": "µg/mL"}, {"measurement": "MIC", "setting": "[14]", "value": 0.78, "unit": "µg/mL"}, {"measurement": "MIC", "setting": "[15]", "value": 0.1, "unit": "µg/mL"}, {"measurement": "MIC", "setting": "[16]", "value": 0.78, "unit": "µg/mL"}, {"measurement": "MIC", "setting": "[17]", "value": 0.39, "unit": "µg/mL"}, {"measurement": "MIC", "setting": "[18]", "value": 0.1, "unit": "µg/mL"}, {"measurement": "MIC", "setting": "[19]", "value": 0.1, "unit": "µg/mL"}, {"measurement": "MIC", "setting": "[20]", "value": 0.1, "unit": "µg/mL"}, {"measurement": "MIC", "setting": "[21]", "value": 0.39, "unit": "µg/mL"}, {"measurement": "MIC", "setting": "[22]", "value": 1.56, "unit": "µg/mL"}]}
